Literature values in US11398630B2, “Method of generating energy from a hydrazide containing anode fuel, and fuel cell” (priority 2019, dated 2022).
Read-outs that look alike come from different tables or passages of the source.

How the values were obtained:
[1] = ambient conditions

For `B` [Borohydride], the Toxicity-LD50 oral rat (rat; oral, rat) is given as 160 mg/kg.
For `NNC(=O)NN` [Carbohydrazide, carbohydrazide], the miscibility with water [1] is given as “^aUnder ambient conditions, carbohydrazide is a solid, but it is completely miscible with water”, the toxicity in words (rat; compared with hydrazine) is given as “nontoxic” and the Toxicity-LD50 oral rat (rat; oral, rat) is given as >5,000 mg/kg. For the same molecule, the LD50 (rat; rat, printed as mg/kg-rat, route not given) was > 5,000 mg/kg.
In the case of `COC` [Dimethyl ether], the Toxicity-LD50 oral rat (rat; oral, rat) is listed as >5,000 mg/kg.
For `CCO` [Ethanol], the Toxicity-LD50 oral rat (rat; rat, in vivo, po) is listed as >5,000 mg/kg.
For `OCC(O)CO` [Glycerol], the Toxicity-LD50 oral rat (rat; oral, rat) is listed as >5,000 mg/kg.
In the case of `CO` [Methanol], the Toxicity-LD50 oral rat (rat; oral, rat) is listed as >5,000 mg/kg.
